Reference: publication PMC10447463, “Data-mining unveils structure–property–activity correlation of viral infectivity enhancing self-assembling peptides” (Nature Communications, 2023)
Where two headings read alike, the source gives them in different places.

Legend:
[1] = test system: HIV-1 infection of TZM-bl cells; assay: HIV-1 infectivity enhancement assay, β-galactosidase luminescence; type: cell-based
[2] = test system: TZM-bl cells; type: cell-based; conditions: CellTiter-Glo, mean of n = 3 replicates; for viability 0.26 µM: peptide 0.26 µM; for viability 1.3 µM: peptide 1.3 µM; for viability 6.5 µM: peptide 6.5 µM
Procedure, shortened: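 CellTiter-Glo luminescence, normalized to 100% metabolic activity, gave cytotoxicity readout for TZM-bl cells exposed to peptide serial dilutions for 3 days; 10,000 cells seeded, triplicate measurements.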

[3] = Zeta-potential measurement; type: physicochemical; conditions: for Zeta-pot. / mV: zeta potential of peptide, Fig S15 source data; for Zeta pot. / mV: 1 mg/mL in PBS pH 7.4 from 10 mg/mL DMSO stock, 1 d RT, 60 µL diluted in 600 µL 1 mM KCl, Zetasizer Nano ZS, Smoluchowski, mean of triplicate; for Zeta-Potential / mV: Figure 7B
Procedure, shortened: (§1)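 One-day room-temperature aggregation at 1 mg/mL in PBS (pH 7.4) preceded measurement; samples then went into 1 mM KCl. Triplicates per sample, two independent experiments averaged.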

[4] = Turbidity, derived count rate of scattered light; type: physicochemical; conditions: for Count Rate / kcps: derived count rate of scattered light at 633 nm, 173°, from zeta-potential measurement, 0.1 mg/mL in 1 mM KCl after 1 d at 1 mg/mL in PBS, turbidity / microscopic aggregation, mean of triplicate
Procedure, shortened: as §1

[5] = Turbidity, derived count rate of scattered light; type: physicochemical; conditions: log10 of derived count rate of scattered light, Figure 7B
[6] = Feb2021 run; infectivity n-fold relative to virus alone
[7] = Feb2021 run; log10 of infectivity relative to EF-C
[8] = Feb2021 run; n-fold infectivity relative to EF-C
[9] = infectivity class (low / medium / high) of each library peptide; main list in c1-c6, same classes repeated in sub-lists of sequences containing the hydrophobicity/charge patterns P+,H0,P+,H0,P0,H0,P0; P+,H0,P0,H0,P0,H0,P0; P+,H0,P0,H0
[10] = infectivity class (low / medium / high) of the peptide in the sequence-pattern analysis, Fig. S22-A4; class limits not given
[11] = infectivity enhancement relative to EF-C (=1); Feb2021 run
[12] = infectivity n-fold relative to virus only; Feb2021 run
[13] = log10 of HIV-1 infection of TZM-bl cells relative to EF-C; Fig S15 source data; asymmetric std dev errors
[14] = log10 of infectivity relative to EF-C; Feb2021 run
[15] = derived count rate from zeta measurement, mean
[16] = derived count rate of scattered light, mean, std deviation in separate column
[17] = log10 of infection relative to EF-C, Figure 7B
[18] = n-fold infection vs virus only, relative to that of EF-C, 1.3 µM peptide
[19] = fibril-forming peptides with positive zeta-potential, low count rate
[20] = Feb2021; figures match the 1.3 µM column
[21] = Feb2021; infectivity relative to virus only
[22] = Feb2021; log10 of infectivity relative to EF-C
[23] = Feb2021; n-fold infectivity relative to EF-C
[24] = derived count rate of scattered light

| Substance | infectivity [1, 9] | Log10 Inf. rel. to EF-C [1, 13] | viability 0.26 µM [2] | viability 1.3 µM [2] | viability 6.5 µM [2] | Zeta category ( +1 = if > 4 mV;-1 = if < -4 mV; 0 = -4mV to 4 mV) [3] | Zeta-pot. / mV [3] | Log10 Infection Rel EF-C [1, 17] | Inf. rel. EF-C [1, 18] | Zeta pot. / mV [3] | Zeta-Potential / mV ([3]; mean) | Count Rate / kcps [4] | Log10 Count Rate [5] | other results |
| --- | --- | --- | --- | --- | --- | --- | --- | --- | --- | --- | --- | --- | --- | --- |
| RGDKIKIQINMC [psis29] | high | 0.02911 | 103.4 | 101.5 | 82.89 | 1 (+1 = if > 4 mV) | 12.2 mV |  |  |  |  |  |  | n-fold to virus (Feb2021) [1, 6]: 44.93; Log10 of Rel to EFC (Feb2021) [1, 7]: 0.02911; Rel-to EFC (Feb-2021) [1, 8]: 1.069; infectivity [1, 10]: high; Rel-to EFC (Feb-2021) [1, 11]: 1.069; n-fold to virus (Feb2021) [1, 12]: 44.93; Log10 of Rel to EFC (Feb2021) [1, 14]: 0.02911; Zeta category ( +1 = if > 4 mV;-1 = if < -4 mV; 0 = -4mV to 4 mV) ([3]; FigS26): 1 (+1 = if > 4 mV); Zeta Pot. / mV ([3]; mean, Std in separate column): 12.2 mV; Zeta Count Rate / kcps [4, 15]: 1404 kcps; Zeta Count Rate / kcps [4, 16]: 1404 kcps; Zeta Count Rate Category ([4]; key not given): 1 |
| NKGAII [reference compound] |  |  |  |  |  |  |  | -1.2 | 0.06 | -9.5 mV | -9.46 mV | 68 kcps | 1.831 |  |
| KIKIKIKIWWWW [TM12] | medium | -0.2301 | 125.9 | 106.4 | 86.48 | 1 (+1 = if > 4 mV) | 15.2 mV |  |  |  |  |  |  | n-fold to virus (Feb2021) [1, 6]: 24.74; Log10 of Rel to EFC (Feb2021) [1, 7]: -0.2301; Rel-to EFC (Feb-2021) [1, 8]: 0.5888; Zeta Pot. / mV ([3]; mean, Std in separate column): 15.2 mV; Zeta Count Rate / kcps [4, 16]: 12420.6 kcps |
| MKVIFLKDVKG [reference compound] |  |  |  |  |  |  |  | -0.93 | 0.12 | 9.6 mV | 9.62 mV | 137 kcps | 2.137 | infectivity enhancement, in words [1, 19]: do not enhance infectivity |
| KLVFFAK [reference compound] |  |  |  |  |  |  |  | -1.15 | 0.07 | 3.2 mV | 3.23 mV | 14 kcps | 1.159 |  |
| RATVYV [reference compound] |  |  |  |  |  |  |  | -1.38 | 0.04 | -5.2 mV | -5.17 mV | 42 kcps | 1.621 |  |
| CKIKIQIII [AR0 / F19] | high | -0.01045 | 109.6 | 100.4 | 87.63 | 1 (+1 = if > 4 mV) | 16.2 mV |  |  |  |  |  |  | n-fold to virus (Feb2021) [1, 6]: 41.02; Log10 of Rel to EFC (Feb2021) [1, 7]: -0.01045; Rel-to EFC (Feb-2021) [1, 8]: 0.9762; infectivity [1, 10]: high; Zeta Pot. / mV ([3]; mean, Std in separate column): 16.2 mV; Zeta Count Rate / kcps [4, 16]: 4953 kcps |
| CKIKIQIRGD [psis21] | medium | -0.4842 | 104.5 | 107.1 | 97.19 |  | 7.157 mV |  |  |  |  |  |  |  |
| GYVIIK [reference compound] |  |  |  |  |  |  |  | -0.99 | 0.10 | 9.9 mV | 9.88 mV | 30 kcps | 1.476 | infectivity enhancement, in words [1, 19]: do not enhance infectivity |
| LASLIYR [reference compound] |  |  |  |  |  |  |  | -1.2 | 0.06 | -5.0 mV | -5.01 mV | 105 kcps | 2.0205 |  |
| RLRLTLC [CN13] | low | -1.288 | 120.7 | 120.4 | 108.4 | 1 (+1 = if > 4 mV) | 19.67 mV |  |  |  |  |  |  | Absolute Infectivity / RLU /s (Feb2021) [1, 20]: 1334 RLU /s; n-fold to virus (Feb2021) [1, 21]: 2.165; Log10 of Rel to EFC (Feb2021) [1, 22]: -1.288; Rel-to EFC (Feb-2021) [1, 23]: 0.05153; Zeta Pot. / mV [3]: 19.67 mV; Zeta Count Rate Category ([4]; category 1 / 0, no key given): 1; Zeta Count Rate / kcps [4, 24]: 125.6 kcps |
| RGDKIKIQINM [MG8a / CN17] | medium | -0.3838 | 107.7 | 105.2 | 86.63 | 1 (+1 = if > 4 mV) | 16.43 mV |  |  |  |  |  |  | Absolute Infectivity / RLU /s (Feb2021) [1, 20]: 9554 RLU /s; n-fold to virus (Feb2021) [1, 21]: 17.36; Log10 of Rel to EFC (Feb2021) [1, 22]: -0.3838; Rel-to EFC (Feb-2021) [1, 23]: 0.4132; n-fold to virus (Feb2021) [1, 6]: 17.36; Log10 of Rel to EFC (Feb2021) [1, 7]: -0.3838; Rel-to EFC (Feb-2021) [1, 8]: 0.4132; Rel-to EFC (Feb-2021) [1, 11]: 0.4132; n-fold to virus (Feb2021) [1, 12]: 17.36; Log10 of Rel to EFC (Feb2021) [1, 14]: -0.3838; Zeta Pot. / mV [3]: 16.43 mV; Zeta Pot. / mV ([3]; mean, Std in separate column): 16.43 mV; Zeta Count Rate Category ([4]; category 1 / 0, no key given): 0; Zeta Count Rate / kcps [4, 15]: 57.2 kcps; Zeta Count Rate / kcps [4, 24]: 57.2 kcps; Zeta Count Rate / kcps [4, 16]: 57.2 kcps; Zeta Count Rate Category ([4]; key not given): 0 |
| VHDCVNITIK [reference compound] |  |  |  |  |  |  |  | -0.27 | 0.53 |  | 9.27 mV | 12542 kcps | 4.098 | Abs Infection at 0.26µM ([1]; peptide 0.26 µM, mean of n = 3, Figure 7A): 46666.66667; Abs Infection at 1.3 µM ([1]; peptide 1.3 µM, mean of n = 3, Figure 7A): 86910; Abs Infection at 6.5 µM ([1]; peptide 6.5 µM, mean of n = 3, Figure 7A): 136243.3333 |
| KIKIKIKIWW [TM21] | medium | -0.4266 | 95.22 | 94.23 | 80.72 | 1 (+1 = if > 4 mV) | 15.4 mV |  |  |  |  |  |  | n-fold to virus (Feb2021) [1, 6]: 15.73; Log10 of Rel to EFC (Feb2021) [1, 7]: -0.4266; Rel-to EFC (Feb-2021) [1, 8]: 0.3744; Zeta Pot. / mV ([3]; mean, Std in separate column): 15.4 mV; Zeta Count Rate / kcps [4, 16]: 9436 kcps |
| KYFIL [reference compound] |  |  |  |  |  |  |  | -1.14 | 0.07 | -7.2 mV | -7.18 mV | 18903 kcps | 4.277 |  |
| IIIK [reference compound] |  |  |  |  |  |  |  | -1.29 | 0.05 | -3.8 mV | -3.82 mV | 26 kcps | 1.413 |  |
| IKFLSVN [reference compound] |  |  |  |  |  |  |  | -1.16 | 0.07 | 5.9 mV | 5.9 mV | 137 kcps | 2.136 | infectivity enhancement, in words [1, 19]: do not enhance infectivity |
| IIIQGK [reference compound] |  |  |  |  |  |  |  | -1.21 | 0.06 | -7.6 mV | -7.56 mV | 10 kcps | 0.9808 |  |
| RQGNINIVA [reference compound] |  |  |  |  |  |  |  | -0.93 | 0.12 | 10.2 mV | 10.17 mV | 36 kcps | 1.551 | infectivity enhancement, in words [1, 19]: do not enhance infectivity |
| IFQINS [reference compound] |  |  |  |  |  |  |  | -1.21 | 0.06 | -11.0 mV | -10.98 mV | 36 kcps | 1.56 |  |
